Results published in patent US9566264B2, “Combinations and methods” (Euthymics Bioscience, Inc., priority 2013, dated 2017).
Where a name gives a salt, the structure may show the parent alone. Read-outs that look alike come from different tables or passages of the source.

Tests used:
[1] = tested on: human hepatocytes; conditions: male, 4 h
Procedure: (§1) Cryopreserved human hepatocytes (male) that are prepared by XenoTech, LLC (Lenexa, Kans.), are thawed on the day of use and resuspended in Waymouth's incubation media. The enzymatic activity of hepatocytes is monitored using 7-ethoxycoumarin and 7-hydroxycoumarin as substrates. […] The incubations are carried out for 4 hours with 1×10^6 viable cells/ml. […] At 0 and 4 hour, cell suspensions are extracted using two volumes of ice cold methanol. After centrifugation, the extracts are stored at −20° C. until further sample processing. The solvent in the samples are dried under a stream of nitrogen, and resuspended in methanol:water (1:1) before analysis.
(§2) The extracts of the 4 hour incubation mixture are analyzed by liquid chromatography/electrospray ionization-mass spectrometry (LC/ESI-MS) in the positive and negative ion modes to screen for possible metabolites. […] The same instrumentation and methods in HPLC Method 1 are used in HPLC Method 2 with the exception that the mobile phases and gradient are 0.4% HCOOH in H2O for mobile A and CH3OH for mobile phase B. The mass spectrometer is LCQ™ Ion Trap Mass Spectrometer and is in either the positive or negative electrospray mode with the ion spray set at 4.5 kV. The capillary temperature is 250° C., the nitrogen sheath gas flow rate is ˜80 unit, the auxiliary nitrogen gas flow rate is 20 unit, and the collision gas is helium.

[2] = tested on: human hepatocytes; experiment: In vitro metabolism in human hepatocytes; conditions: 100 μM, 4 hours incubation
Procedure: as §1, §2

[3] = target: CYP2C19 (Homo sapiens, UniProt P33261); experiment: Inhibition of human CYP activity in microsomes: (S)-mephenytoin 4′-hydroxylation; conditions: pooled human liver microsomes, 10 to 30 min at 37° C.
Sequence of CYP2C19 (P33261 whole entry): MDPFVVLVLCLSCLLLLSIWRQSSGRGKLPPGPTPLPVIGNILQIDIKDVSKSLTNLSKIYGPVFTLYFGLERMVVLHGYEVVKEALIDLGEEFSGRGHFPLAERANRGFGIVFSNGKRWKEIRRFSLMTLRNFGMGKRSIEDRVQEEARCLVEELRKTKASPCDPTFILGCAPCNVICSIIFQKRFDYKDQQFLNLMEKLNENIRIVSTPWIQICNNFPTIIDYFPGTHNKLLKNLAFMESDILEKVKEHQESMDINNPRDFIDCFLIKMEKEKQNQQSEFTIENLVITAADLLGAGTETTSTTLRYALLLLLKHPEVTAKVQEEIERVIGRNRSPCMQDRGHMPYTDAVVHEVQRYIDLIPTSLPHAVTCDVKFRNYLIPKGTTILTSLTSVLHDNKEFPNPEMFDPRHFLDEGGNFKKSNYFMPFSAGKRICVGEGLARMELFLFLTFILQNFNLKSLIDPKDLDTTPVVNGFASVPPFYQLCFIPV

[4] = tested on: Caco-2 cells; experiment: Caco-2 bi-directional permeability assay; format: in vitro ADME, human
Procedure: Caco-2 cells are obtained from American Type Culture Collection (ATCC, Manassas, Va.) and are grown to confluence for 14-21 days on 1 μm filters in 24 well plates. […] Receiver solutions consist of buffer only. Sequential samples of transported solute are taken at 20 minute intervals in duplicate over 2 hours and the concentration of the transported compound is determined by HPLC-UV/MS. Test sample concentration is determined by LC/MS. Permeability coefficients are calculated for each sampling interval, and averages from the intervals are determined. The apparent permeability coefficient Papp is calculated from the equation
[formula] where dQ/dt is the rate of permeation of drug across the cells, C0 is the original concentration in donor compartment at time zero, and A is the area of the cell monolayer. Mass balance in the system is ascertained by comparing the sum of transported solute and remaining donor solute to the starting solution concentration.

[5] = Flavin monooxygenase (FMO)-dependent lactam formation screening (pre-incubation temperature); format: in vitro ADME, human; conditions: for formation: area under the curve ratio of analyte to internal standard bicifadine-d5: 1 mM NADPH, mean ± SD; for formation after 37° C. pre-incubation versus 45° C. pre-incubation: 5 minute pre-incubation
Procedure: FMOs, but not CYP enzymes, are sensitive to elevated incubation temperature. Thus, to determine if the formation of the lactam metabolite is mediated by FMOs and/or CYPs, the effect of pre-incubation temperature on the lactam formation is conducted by XenoBiotic Laboratories, Inc. (Plainsboro, N.J.). […] The incubation of benzydamine (positive control, 200 μM) is carried out concurrently. The samples are analyzed using LC-MS/MS (see NADPH-dependent lactam formation methodology).

[6] = Human plasma protein binding (ultrafiltration); format: in vitro ADME
Procedure: Samples of test drug in triplicate are mixed and incubated in Millipore Multiscreen filter plates with Ultracel-10 regenerated cellulose membranes for 60 minutes at 37° C. Following incubation, samples undergo centrifugation for 60 minutes at 2000×g and the filtrate is collected. Percent protein bound is determined from the concentration of free compound present in the filtrate following comparison to a standard curve of test drug. […] The flow rate is 1 ml/min and the column temperature is maintained at 50° C. The solvent is a gradient of solvent A composed of 0.1% formic acid in water and solvent B composed of acetonitrile with 0.07% formic acid.

[7] = tested on: monoamine transporters; experiment: Affinity for monoamine transporters; format: binding
[8] = MAO phenotyping with MAO inhibitors in human liver mitochondria; format: in vitro ADME; conditions: 1 μM parent, 30 minutes at 37° C.
Procedure: A study on the role of monoamine oxidases involved in the formation of the lactam metabolite is conducted by XenoBiotic Laboratories, Inc. (Plainsboro, N.J.).

[9] = Brain and plasma levels of amitifadine and lactam metabolite Compound 2 in rat; format: in vivo; parameters: plasma level, mean±SEM: unit not given here; conditions: for plasma level, mean±SEM: amitifadine 10 mg/kg po
Procedure: The studies are conducted in accordance with the Institutional Animal Care and Use Committee guidelines. […] At 0.5, 1, 2, and 4 hour after dosage, animals are briefly anesthetized in a chamber containing 4% isoflurane and rapidly decapitated. Trunk blood is collected in heparinized tubes (9 units/ml whole blood), immediately chilled to 4° C., centrifuged, and the plasma is frozen at −80° C. until analyzed. Brains are quickly removed, bisected along the midline, and frozen at −80° C. until analyzed.
Plasma and brain samples are allowed to thaw on ice and are homogenized in a 20 ml glass vial in two volumes of ice cold water using a handheld homogenizer (VDI 12, VWR International). Standard curves are prepared in water, control plasma, and control brain homogenate. Equal volumes (100 μl) of plasma or brain homogenate samples, distilled water and internal standard are mixed in 1.5 ml polypropylene tubes and 300 μl of acetonitrile is added to each mixture. Samples are then mixed thoroughly by placing on a shaker at 200 RPM for 40 minutes at room temperature. The samples are then centrifuged at 10,000×g for 10 minutes at 4° C. and the supernatant (200 μl) is transferred to a tube containing 2 μl of 10% formic acid. The samples are subjected to a Zorbax SBC18 Solvent Saver Plus 3.0×150 mm 3.5-μm column on a Shimadzu Prominence LC. […] The concentration of compound in the column effluent is measured using an Applied Biosystems API-3200 triple quadrupole mass spectrometer.

[10] = NADPH-dependent lactam formation in human liver microsomes; format: in vitro ADME; conditions: for formation: area under the curve ratio of analyte to internal standard bicifadine-d5: 10 μM parent, 30 minutes, mean ± SD
Procedure: The effect of NADPH on lactam formation ((1S,5R)-5-(3,4-dichlorophenyl)-3-azabicyclo[3.1.0]hexan-2-one hydrochloride, Compound 2) is conducted by XenoBiotic Laboratories, Inc. (Plainsboro, N.J.). […] Bicifadine ((±)-1-(4-methylphenyl)-3-azabicyclo-[3.1.0]hexane HCl) (10 μM) is used as a positive control and the formation of the lactam metabolite of bicifadine (designated M12) is also monitored. Negative controls are determined by incubation of amitifadine and bicifadine in the absence of liver enzymes. The samples are analyzed using LC-MS/MS.
The system controller for the HPLC system is a Shimadzu SCL-10Avp, the pump model is a Shimadzu LC-10Avp, and the autosampler model is Shimadzu HTA. The analytical column is Phenomenex Luna C18 5 μm 50×2.0 mm which is set at room temperature and the autosampler is also at room temperature. The injection volume is 5 μl. Mobile phase A is 0.05% formic acid in water and mobile phase B is 0.05% formic acid in acetonitrile. The flow rate is 0.7 ml/minute and run time is 5 minutes. The mass spectrometer is an AB MDX Sciex API-4000 run in the turbo ion spray (ESI) positive ion detection mode and the scan mode is multiple reaction monitoring (MRM). The optimized mass spectrometry conditions are ion spray at 5000 V, curtain gas 10 units temperature 500° C., entrance potential 10 V, collision gas 6 units, and gas 1 and 2 each 50 units.

[11] = target: T1, CYP2B6 (Homo sapiens, UniProt P20813); experiment: Inhibition of human CYP activity in microsomes: bupropion hydroxylation; conditions: pooled human liver microsomes, 10 to 30 min at 37° C.
T1 sequence (P20813 1-491): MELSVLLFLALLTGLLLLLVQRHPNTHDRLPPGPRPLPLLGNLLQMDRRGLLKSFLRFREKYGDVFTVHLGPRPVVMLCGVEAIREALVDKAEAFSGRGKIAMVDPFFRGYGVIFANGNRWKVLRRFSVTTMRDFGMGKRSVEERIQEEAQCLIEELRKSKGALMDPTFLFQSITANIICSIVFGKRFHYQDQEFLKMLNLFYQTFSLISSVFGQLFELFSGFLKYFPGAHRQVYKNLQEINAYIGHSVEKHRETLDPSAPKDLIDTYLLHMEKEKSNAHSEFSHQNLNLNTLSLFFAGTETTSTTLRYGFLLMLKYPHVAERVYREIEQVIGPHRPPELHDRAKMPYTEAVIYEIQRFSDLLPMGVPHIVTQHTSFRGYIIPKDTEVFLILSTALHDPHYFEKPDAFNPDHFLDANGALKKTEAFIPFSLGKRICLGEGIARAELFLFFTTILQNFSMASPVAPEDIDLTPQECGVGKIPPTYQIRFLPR

[12] = human, Caco-2, 2 h, 10 μM, pH 7.4
[13] = microsomes pre-incubated at 37° C. for 5 minutes
[14] = microsomes pre-incubated at 45° C. for 5 minutes
[15] = male, Sprague-Dawley, brain/plasma, po, 10 mg/kg, read-out: brain to plasma ratio

CCOc1ccc2ccc(=O)oc2c1 [7-ethoxycoumarin, reference compound]
metabolized after incubation ([1]; 100 μM): 68.9%

O=c1ccc2ccc(O)cc2o1 [7-hydroxycoumarin]
metabolized after incubation [2]: 99.1%

CC[C@@]1(c2ccccc2)C(=O)NC(=O)N(Cc2ccccc2)C1=O [(R)-N-3-benzyl-Phenobarb-ital, (R)—N-3-benzylphenobarbital]
IC50 [3]: 300 nM

Clc1ccc([C@]23CNC[C@H]2C3)cc1Cl [Amitifadine, (1R,5S)-(+)-1-(3,4-dichlorophenyl)-3-azabicyclo[3.1.0]hexane hydrochloride]
Mass balance % AP→BL [4, 12]: 62% | Mass balance % BL→AP [4, 12]: 88% | parent remaining unchanged after incubation ([1]; 87 μM): 82.4%

C[N+](C)([O-])CCCOc1nn(Cc2ccccc2)c2ccccc12 [Benzydamine N-oxide, reference compound]
formation: area under the curve ratio of analyte to internal standard bicifadine-d5 [5, 13]: 35.70 ± 0.86 | formation: area under the curve ratio of analyte to internal standard bicifadine-d5 [5, 14]: 7.68 ± 1.51 | formation after 37° C. pre-incubation versus 45° C. pre-incubation [5]: 4.6 fold

Cn1c(=O)c2c(ncn2C)n(C)c1=O [Caffeine]
fraction unbound at 60 min, 1 μM ([6]; 1 μM, mean and SEM of triplicate, read-out: % Bound (converted)): 0.73 | fraction unbound at 60 min, 10 μM ([6]; 10 μM, mean and SEM of triplicate, read-out: % Bound (converted)): 0.641 | fraction unbound at 60 min ([6]; average of 1 and 10 μM): 0.685

O=C1NC[C@]2(c3ccc(Cl)c(Cl)c3)C[C@H]12 [Compound 2, (1S,5R)-5-(3,4-dichlorophenyl)-3-azabicyclo[3.1.0]hexan-2-one hydrochloride]
affinity for monoamine transporters [7]: low affinity | effect of MAO-A inhibitor clorgyline on lactam formation [8]: concentration-dependently decreased | effect of MAO-B inhibitor selegiline on lactam formation [8]: did not have an effect | plasma level, mean±SEM ([9]; 0.5 hours): 1153±610 | plasma level, mean±SEM ([9]; 1 hour): 1620±303 | plasma level, mean±SEM ([9]; 2 hours): 3831±1127 | plasma level, mean±SEM ([9]; 4 hours): 8896±794 | Kp at 0.5 h [9, 15]: 1.1 | Kp at 1 h [9, 15]: 1.3 | Kp at 2 h [9, 15]: 1.4 | Kp at 4 h [9, 15]: 1.7 | formation: area under the curve ratio of analyte to internal standard bicifadine-d5 ([10]; 0 mM NADPH at 37° C): 0.04 ± 0.00 | formation: area under the curve ratio of analyte to internal standard bicifadine-d5 ([10]; 1 mM NADPH at 37° C.): 0.08 ± 0.01 | quantity formed in presence of NADPH versus absence of NADPH ([10]; 1 mM vs 0 mM NADPH): 2 fold | formation: area under the curve ratio of analyte to internal standard bicifadine-d5 [5, 13]: 0.05 ± 0.01 | formation: area under the curve ratio of analyte to internal standard bicifadine-d5 [5, 14]: 0.06 ± 0.01 | formation after 37° C. pre-incubation versus 45° C. pre-incubation [5]: did not alter

CC(Nn1nnc2ccccc21)c1ccccc1 (stereo not drawn) [N-(α-methylbenzyl)-1-AB, N-(α-methylbenzyl)-1-aminobenzotriazole]
IC50 [11]: 60 nM

Lucifer yellow [reference compound]
transfer across Caco-2 monolayer (integrity) ([4]; Caco-2): ≤ 0.05%
